The source made the active and inactive calls.
How the values were obtained:
[1] = target: T1, Kappa-type opioid receptor (Homo sapiens, UniProt P41145); assay: SAR analysis of small molecule agonists of the kappa opioid receptor via a luminescent beta-arrestin assay - Set 3. [Related pubchem assays (depositor defined):AID1777, AID1785, AID1786, AID1966, AID2133, AID2136, AID2284, AID2500]; type: functional
[2] = luciferase reporter signal suppression in cells – H4 neuroglioma cells, luminescence, dose response (AID 1990); type: functional, cell-based
[3] = target: Nucleotide-binding oligomerization domain-containing protein 1 (Homo sapiens, UniProt Q9Y239); assay: blockers of NOD1 pathway activity – revised, SAR follow-up (AID 2333); type: functional
[4] = alpha-synuclein stem-loop luciferase translation blockers – H4 neuroglioma cells, luminescence, confirmation (AID 1988); type: functional, cell-based
HEK293 = assay: cells; details: Homo sapiens;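 also: cells exposed to compound for 14 hours overnight before viability readout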
[5] = Luminescence Cell-Based Dose Response HTS to Identify Inhibitors of 5'UTR Stem-Loop Driven Prion Protein mRNA Translation in H4 Neuroglioblastoma Cells. [Related pubchem assays: 1827 (Project Summary), 1813 (Primary HTS)]; type: functional
Tumor necrosis factor = Tumor necrosis factor (Homo sapiens, UniProt P01375); assay: analog potency on TNFa NF-kB signaling – cell-based, revised, SAR follow-up (AID 2337); type: functional
[6] = target: T2, G-protein coupled receptor 35 (Homo sapiens, UniProt Q9HC97); assay: SAR analysis of Antagonists of the GPR35 Receptor using an Image-Based Assay - Set 3. [Related pubchem assays (depositor defined):AID2013, AID2026]; type: functional
[7] = target: T3, G-protein coupled receptor 55 (Homo sapiens, UniProt Q9Y2T6); assay: blockade of LPI-induced GPR55 arrestin translocation – imaging, U2OS, beta-arrestin-GFP, LPI agonist, set 2, SAR follow-up (AID 2820); type: functional
[8] = target: T3, G-protein coupled receptor 55; assay: inhibition of LPI-stimulated GPR55 beta-arrestin translocation – imaging, U2OS, beta-arrestin-GFP, LPI agonist, primary screen (AID 2013); type: functional;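 also: antagonist potency measured as reduced agonist-driven arrestin aggregation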
Cannabinoid receptor 2 [9] = target: T4, Cannabinoid receptor 2 (Homo sapiens, UniProt P34972); assay: SAR analysis of agonists of the Cannabinoid Receptor 2 using an Image-Based Assay. [Related pubchem assays (depositor defined):AID2013, AID2026]; type: functional
[10] = target: T5, Short transient receptor potential channel 4 (Mus musculus, UniProt Q9QUQ5); assay: block of DAMGO-driven TRPC4 calcium entry – cell-based, HEK293 TRPC4/mu-opioid, Fluo-4 calcium, dose response (AID 434942); type: functional;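 also: potency of inhibitors blocking the TRPC4 calcium response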
T5 sequence (Q9QUQ5 whole entry): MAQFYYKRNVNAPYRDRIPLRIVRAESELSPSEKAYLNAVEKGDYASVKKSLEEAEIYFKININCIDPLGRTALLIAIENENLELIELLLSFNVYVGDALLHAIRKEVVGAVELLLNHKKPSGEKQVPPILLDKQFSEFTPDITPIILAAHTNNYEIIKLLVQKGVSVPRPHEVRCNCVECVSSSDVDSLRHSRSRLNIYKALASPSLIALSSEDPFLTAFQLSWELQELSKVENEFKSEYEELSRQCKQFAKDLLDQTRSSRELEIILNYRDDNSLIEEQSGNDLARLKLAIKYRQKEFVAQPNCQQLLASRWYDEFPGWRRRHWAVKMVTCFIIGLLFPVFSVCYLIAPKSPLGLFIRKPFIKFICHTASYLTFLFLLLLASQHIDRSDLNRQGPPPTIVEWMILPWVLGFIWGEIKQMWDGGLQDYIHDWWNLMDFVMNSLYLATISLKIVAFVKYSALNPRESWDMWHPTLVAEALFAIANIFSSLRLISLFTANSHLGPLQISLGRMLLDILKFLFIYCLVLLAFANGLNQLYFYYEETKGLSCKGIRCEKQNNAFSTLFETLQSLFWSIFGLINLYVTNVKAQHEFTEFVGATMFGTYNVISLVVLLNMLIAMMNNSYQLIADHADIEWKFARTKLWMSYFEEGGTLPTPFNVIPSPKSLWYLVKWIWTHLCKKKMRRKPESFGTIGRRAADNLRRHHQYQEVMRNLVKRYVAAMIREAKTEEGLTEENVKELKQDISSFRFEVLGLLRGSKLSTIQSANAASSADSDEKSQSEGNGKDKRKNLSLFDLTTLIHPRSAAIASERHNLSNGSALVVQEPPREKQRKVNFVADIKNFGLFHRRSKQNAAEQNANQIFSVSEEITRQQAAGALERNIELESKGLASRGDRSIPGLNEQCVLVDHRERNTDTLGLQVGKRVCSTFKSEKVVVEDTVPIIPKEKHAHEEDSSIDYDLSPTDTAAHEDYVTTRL

Cannabinoid receptor 1 [11] = target: T6, Cannabinoid receptor 1 (Homo sapiens, UniProt P21554); assay: SAR analysis of agonists of the Cannabinoid Receptor 1 using an Image-Based Assay - Set 2. [Related pubchem assays (depositor defined):AID2013, AID2026]; type: functional
Cannabinoid receptor 2 [12] = target: T4, Cannabinoid receptor 2; assay: SAR analysis of antagonists of the Cannabinoid Receptor 2 using an Image-Based Assay. [Related pubchem assays (depositor defined):AID2013, AID2026]; type: functional
Cannabinoid receptor 1 [13] = target: T6, Cannabinoid receptor 1; assay: SAR analysis of antagonists of the Cannabinoid Receptor 1 using an Image-Based Assay - Set 2. [Related pubchem assays (depositor defined):AID2013, AID2026]; type: functional
[14] = target: T2, G-protein coupled receptor 35; assay: SAR analysis of Agonists of the GPR35 Receptor using an Image-Based Assay - Set 2. [Related pubchem assays (depositor defined):AID2013, AID2026]; type: functional
[15] = target: T1, Kappa-type opioid receptor; assay: kappa opioid receptor blockers, image-based, SAR follow-up (AID 2348); type: functional
[16] = target: T1, Kappa-type opioid receptor; assay: SAR analysis of small molecule agonists of the kappa opioid receptor via a luminescent beta-arrestin assay. [Related pubchem assays (depositor defined):AID1777, AID1786, AID1966, AID2133, AID2136, AID2348, AID2352, AID2357, AID2359, AID2370, AID2420, AID2478, AID2491, AID2492, AID2493, AID2497, AID2498, AID2500, AID449737, AID488822, AID488842]; type: functional
Mu-type opioid receptor [17] = target: T7, Mu-type opioid receptor (Homo sapiens, UniProt P35372); assay: mu opioid receptor activators, image-based, SAR follow-up (AID 2352); type: functional
[18] = target: T8, Delta-type opioid receptor (Homo sapiens, UniProt P41143); assay: delta opioid receptor blockers – image-based, SAR follow-up (AID 2357); type: functional
[19] = target: T1, Kappa-type opioid receptor; assay: kappa opioid receptor activation potency – imaging, image-based, SAR follow-up (AID 2359); type: functional
[20] = target: T8, Delta-type opioid receptor; assay: DOR agonists, SAR follow-up, image-based (AID 2370); type: functional
Mu-type opioid receptor [21] = target: T7, Mu-type opioid receptor; assay: mu opioid receptor blockers – image-based, SAR follow-up (AID 2420); type: functional;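 also: compounds added before stimulation of receptor with agonist DAMGO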
[22] = target: Sphingosine 1-phosphate receptor 4 (Homo sapiens, UniProt O95977); assay: Fluorescence dose response cell-based high throughput screening assay for agonists of the Sphingosine 1-Phosphate Receptor 4 (S1P4). [Related pubchem assays: 1509 (Primary screen.), 1523 (Confirmation screen in triplicates.)]; type: functional
[23] = target: Sphingosine 1-phosphate receptor 1 (Homo sapiens, UniProt P21453); assay: Fluorescence-based counterscreen assay for S1P4 agonists: Cell-based dose response high throughput screening assay to identify agonists of the Sphingosine 1-Phosphate Receptor 1 (S1P1). [Related pubchem assays (depositor defined):AID1509, AID1523, AID1801, AID463107, AID463118, AID463119, AID463122, AID463123, AID463129, AID463225, AID504400, AID504460]; type: functional
[24] = target: T9, Small ubiquitin-related modifier 1 (Homo sapiens, UniProt P63165); assay: SUMO1 protein interaction blockers, potency – biochemical, fluorescence polarization, uHTS hits, dose response (AID 624382); type: functional; details: read-out: IC50_Mean
[25] = target: Dual specificity protein phosphatase 6 (Rattus norvegicus, UniProt Q64346); assay: inhibition of rat DUSP6 enzyme activity – biochemical, in vitro, primary screen (AID 425)
[26] = target: T10, Dual specificity protein phosphatase 3 (Homo sapiens, UniProt P51452); assay: VHR1 phosphatase inhibitors, primary screen, biochemical, absorbance, uHTS (AID 1654)
[27] = antiviral protection against BTV-induced cell death – arbovirus, BSR cells, confirmation (AID 1250); type: functional;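 also: protection from viral cytopathic effect measured as cell viability by ATP luminescence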
[28] = target: T11, Calpain-2 catalytic subunit (Sus scrofa, UniProt P43367); assay: m-calpain protease blockers, concentration series – biochemical, fluorogenic peptide substrate, dose response (AID 1420); type: functional
T11 sequence (P43367 whole entry): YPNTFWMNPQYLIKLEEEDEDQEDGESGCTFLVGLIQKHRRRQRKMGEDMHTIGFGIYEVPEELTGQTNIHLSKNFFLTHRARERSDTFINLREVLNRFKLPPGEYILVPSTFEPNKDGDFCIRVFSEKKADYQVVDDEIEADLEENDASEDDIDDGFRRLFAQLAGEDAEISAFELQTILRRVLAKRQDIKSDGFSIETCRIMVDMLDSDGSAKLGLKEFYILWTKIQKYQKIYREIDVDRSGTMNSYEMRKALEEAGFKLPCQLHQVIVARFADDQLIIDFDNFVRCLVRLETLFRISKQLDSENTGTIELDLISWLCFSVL

[29] = target: Eukaryotic translation initiation factor 4E (Mus musculus, UniProt P63073); assay: blockers of eIF4G binding by eIF4E – biochemical, TR-FRET, dose response (AID 855); type: functional;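 also: potency for disrupting eIF4E binding to eIF4GI seen as loss of FRET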
[30] = target: T9, Small ubiquitin-related modifier 1; assay: SUMO1 protein-protein binding blockers, potency – biochemical, FRET, dose response (AID 624383); type: functional; details: read-out: IC50_Mean
[31] = target: T10, Dual specificity protein phosphatase 3; assay: VHR1 phosphatase inhibitors, biochemical (AID 1878)

T1 sequence (P41145 whole entry): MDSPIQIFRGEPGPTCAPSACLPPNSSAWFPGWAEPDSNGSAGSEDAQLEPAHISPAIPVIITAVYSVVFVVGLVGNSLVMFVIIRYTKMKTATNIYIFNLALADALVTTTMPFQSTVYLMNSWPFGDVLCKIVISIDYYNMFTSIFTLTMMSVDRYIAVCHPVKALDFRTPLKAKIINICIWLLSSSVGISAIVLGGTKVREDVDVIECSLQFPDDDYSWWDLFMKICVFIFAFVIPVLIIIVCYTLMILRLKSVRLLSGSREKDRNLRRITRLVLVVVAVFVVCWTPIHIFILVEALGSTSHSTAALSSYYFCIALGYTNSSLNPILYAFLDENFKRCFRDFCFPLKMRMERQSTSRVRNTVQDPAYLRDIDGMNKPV
T2 sequence (Q9HC97 whole entry): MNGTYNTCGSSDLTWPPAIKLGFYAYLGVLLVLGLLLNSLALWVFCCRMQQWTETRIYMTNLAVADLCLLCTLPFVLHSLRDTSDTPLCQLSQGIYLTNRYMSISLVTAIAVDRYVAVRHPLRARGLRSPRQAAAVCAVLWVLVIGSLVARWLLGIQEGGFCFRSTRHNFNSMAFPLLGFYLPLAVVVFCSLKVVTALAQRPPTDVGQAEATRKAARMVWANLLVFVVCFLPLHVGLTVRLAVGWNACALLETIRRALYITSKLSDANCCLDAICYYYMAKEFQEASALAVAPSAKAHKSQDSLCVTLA
T6 sequence (P21554 whole entry): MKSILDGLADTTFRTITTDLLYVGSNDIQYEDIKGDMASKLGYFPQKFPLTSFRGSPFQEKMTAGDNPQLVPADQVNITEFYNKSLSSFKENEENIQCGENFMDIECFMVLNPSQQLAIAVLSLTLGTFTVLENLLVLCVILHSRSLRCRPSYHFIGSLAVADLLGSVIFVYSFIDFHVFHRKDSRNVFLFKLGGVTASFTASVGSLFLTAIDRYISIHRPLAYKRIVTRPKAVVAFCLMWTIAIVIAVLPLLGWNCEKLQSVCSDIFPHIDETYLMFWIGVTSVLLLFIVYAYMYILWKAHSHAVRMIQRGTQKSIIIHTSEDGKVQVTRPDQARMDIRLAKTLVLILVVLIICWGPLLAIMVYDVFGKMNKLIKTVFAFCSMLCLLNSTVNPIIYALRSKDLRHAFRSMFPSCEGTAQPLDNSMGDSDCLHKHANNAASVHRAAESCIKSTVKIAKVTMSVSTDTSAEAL
T8 sequence (P41143 whole entry): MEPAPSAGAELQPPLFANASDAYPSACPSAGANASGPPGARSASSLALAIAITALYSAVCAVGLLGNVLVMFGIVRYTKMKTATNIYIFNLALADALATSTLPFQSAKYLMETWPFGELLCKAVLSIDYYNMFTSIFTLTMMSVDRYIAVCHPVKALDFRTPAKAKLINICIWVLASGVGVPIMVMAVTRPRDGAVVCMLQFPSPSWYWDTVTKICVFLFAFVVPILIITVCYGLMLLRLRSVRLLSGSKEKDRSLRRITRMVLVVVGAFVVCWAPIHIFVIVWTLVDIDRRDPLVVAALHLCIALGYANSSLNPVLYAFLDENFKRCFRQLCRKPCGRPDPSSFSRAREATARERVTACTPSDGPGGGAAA
T9 sequence (P63165 whole entry): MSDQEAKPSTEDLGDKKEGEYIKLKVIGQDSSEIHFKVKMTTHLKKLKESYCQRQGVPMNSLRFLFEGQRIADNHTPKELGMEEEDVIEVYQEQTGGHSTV
T7 sequence (P35372 whole entry): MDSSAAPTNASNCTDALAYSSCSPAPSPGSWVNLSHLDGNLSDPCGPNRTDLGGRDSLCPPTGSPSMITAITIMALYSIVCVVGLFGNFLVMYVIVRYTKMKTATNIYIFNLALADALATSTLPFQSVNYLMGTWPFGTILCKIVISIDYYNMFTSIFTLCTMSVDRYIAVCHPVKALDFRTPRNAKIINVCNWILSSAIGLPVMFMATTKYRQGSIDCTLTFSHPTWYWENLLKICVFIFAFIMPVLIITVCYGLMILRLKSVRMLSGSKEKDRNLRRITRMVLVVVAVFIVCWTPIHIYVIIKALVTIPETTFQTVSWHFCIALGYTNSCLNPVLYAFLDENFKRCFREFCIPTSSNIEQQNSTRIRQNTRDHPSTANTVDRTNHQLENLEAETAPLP
T4 sequence (P34972 whole entry): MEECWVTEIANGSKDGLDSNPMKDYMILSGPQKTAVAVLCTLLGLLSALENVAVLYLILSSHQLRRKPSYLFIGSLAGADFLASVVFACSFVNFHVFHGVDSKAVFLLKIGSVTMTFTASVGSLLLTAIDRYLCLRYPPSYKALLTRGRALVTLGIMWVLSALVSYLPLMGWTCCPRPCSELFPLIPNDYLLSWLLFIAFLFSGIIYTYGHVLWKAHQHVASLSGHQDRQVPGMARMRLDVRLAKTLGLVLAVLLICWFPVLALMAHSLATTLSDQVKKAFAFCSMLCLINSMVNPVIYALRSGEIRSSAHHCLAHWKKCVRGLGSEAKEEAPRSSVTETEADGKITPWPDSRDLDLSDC
T3 sequence (Q9Y2T6 whole entry): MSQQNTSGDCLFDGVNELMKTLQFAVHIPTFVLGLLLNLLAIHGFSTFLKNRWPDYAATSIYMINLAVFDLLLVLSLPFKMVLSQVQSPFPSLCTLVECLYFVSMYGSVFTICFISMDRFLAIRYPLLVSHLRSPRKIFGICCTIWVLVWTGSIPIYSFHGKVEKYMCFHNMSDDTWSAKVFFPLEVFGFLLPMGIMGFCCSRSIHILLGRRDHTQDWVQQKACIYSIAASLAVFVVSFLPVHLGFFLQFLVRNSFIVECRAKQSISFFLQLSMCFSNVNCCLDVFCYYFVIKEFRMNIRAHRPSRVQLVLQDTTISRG
T10 sequence (P51452 whole entry): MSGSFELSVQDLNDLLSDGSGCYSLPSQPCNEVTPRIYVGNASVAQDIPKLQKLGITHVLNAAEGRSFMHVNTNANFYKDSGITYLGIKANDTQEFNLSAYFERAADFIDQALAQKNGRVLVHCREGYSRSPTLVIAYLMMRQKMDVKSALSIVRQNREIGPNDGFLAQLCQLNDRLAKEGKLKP
Chain of Dual specificity protein phosphatase 6 (Q64346 whole entry): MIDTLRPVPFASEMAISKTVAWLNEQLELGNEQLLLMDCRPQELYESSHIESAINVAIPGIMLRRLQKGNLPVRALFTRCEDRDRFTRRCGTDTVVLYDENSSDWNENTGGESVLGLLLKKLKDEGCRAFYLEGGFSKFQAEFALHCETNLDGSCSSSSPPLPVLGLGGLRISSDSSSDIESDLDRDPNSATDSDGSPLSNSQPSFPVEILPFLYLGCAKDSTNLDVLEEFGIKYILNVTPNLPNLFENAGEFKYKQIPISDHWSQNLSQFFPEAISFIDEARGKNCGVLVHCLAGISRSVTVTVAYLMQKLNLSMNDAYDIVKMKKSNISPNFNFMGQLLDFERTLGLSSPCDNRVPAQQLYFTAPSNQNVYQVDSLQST
Chain of Tumor necrosis factor (P01375 whole entry): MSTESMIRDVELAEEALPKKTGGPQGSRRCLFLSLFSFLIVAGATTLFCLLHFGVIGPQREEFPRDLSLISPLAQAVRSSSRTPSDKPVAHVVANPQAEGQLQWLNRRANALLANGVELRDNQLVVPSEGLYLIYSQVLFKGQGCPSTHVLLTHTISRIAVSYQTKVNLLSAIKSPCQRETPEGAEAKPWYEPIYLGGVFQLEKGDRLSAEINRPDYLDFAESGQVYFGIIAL
Chain of Sphingosine 1-phosphate receptor 4 (O95977 whole entry): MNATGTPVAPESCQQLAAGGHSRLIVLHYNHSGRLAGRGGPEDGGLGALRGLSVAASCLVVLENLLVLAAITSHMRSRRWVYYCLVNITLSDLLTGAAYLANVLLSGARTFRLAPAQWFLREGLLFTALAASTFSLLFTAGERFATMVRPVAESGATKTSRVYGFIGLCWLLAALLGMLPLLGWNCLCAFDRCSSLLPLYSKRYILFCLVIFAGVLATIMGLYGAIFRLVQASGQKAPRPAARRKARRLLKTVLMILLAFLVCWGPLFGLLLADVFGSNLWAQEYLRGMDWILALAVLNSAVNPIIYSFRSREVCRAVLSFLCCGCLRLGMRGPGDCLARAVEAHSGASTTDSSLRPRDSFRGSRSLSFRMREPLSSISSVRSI
Chain of Sphingosine 1-phosphate receptor 1 (P21453 whole entry): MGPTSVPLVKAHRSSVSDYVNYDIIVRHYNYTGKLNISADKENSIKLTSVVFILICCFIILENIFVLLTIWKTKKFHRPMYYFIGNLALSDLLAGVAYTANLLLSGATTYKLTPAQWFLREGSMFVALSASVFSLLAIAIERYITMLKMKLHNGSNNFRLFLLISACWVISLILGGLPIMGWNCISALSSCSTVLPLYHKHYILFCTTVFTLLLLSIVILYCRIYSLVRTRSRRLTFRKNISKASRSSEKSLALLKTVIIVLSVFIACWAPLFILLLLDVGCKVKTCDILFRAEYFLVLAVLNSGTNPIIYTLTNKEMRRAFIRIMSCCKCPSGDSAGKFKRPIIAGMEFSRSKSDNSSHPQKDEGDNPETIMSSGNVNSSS
Chain of Eukaryotic translation initiation factor 4E (P63073 whole entry): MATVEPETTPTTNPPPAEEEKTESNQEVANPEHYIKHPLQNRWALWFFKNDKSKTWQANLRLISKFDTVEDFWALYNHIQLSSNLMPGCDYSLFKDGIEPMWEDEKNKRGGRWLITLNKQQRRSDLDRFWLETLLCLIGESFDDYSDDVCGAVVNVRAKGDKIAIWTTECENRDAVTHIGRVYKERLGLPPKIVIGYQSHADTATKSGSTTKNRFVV

With `Clc1ccc(CSc2nnc(-c3ccncc3)n2Cc2ccco2)cc1Cl` the EC50 [1] was > 20 µM (inactive).

For `COCCn1c(C)cc(C(=O)COC(=O)c2cccc(O)c2)c1C`, the EC50 [2] was < 0.1 µM (active), the IC50 [3] was 2.5 µM (active) and the EC50 [4] was 0.137 µM (active). For the same molecule, the IC50 (HEK293) was > 20 µM (inactive), the EC50 [5] was 0.121 µM (active) and the IC50 (Tumor necrosis factor) was 0.704 µM (active).

In the case of `Cc1[nH]nc(-c2ccc(O)cc2O)c1-c1ccc(Cl)cc1`, the IC50 [6] is reported as > 32 µM (inactive), the IC50 [7] is reported as 2.05 µM (active) and the IC50 [8] is reported as 3.44 µM (active). The EC50 (Cannabinoid receptor 2 [9]) was > 32 µM (inactive), the EC50 [10] was 5.31 µM (active) and the EC50 (Cannabinoid receptor 1 [11]) was > 32 µM (inactive). The IC50 (Cannabinoid receptor 2 [12]) was > 32 µM (inactive), the IC50 (Cannabinoid receptor 1 [13]) was > 32 µM (inactive) and the EC50 [14] was > 32 µM (inactive).

For `O=C(c1ccccn1)N(Cc1ccco1)C1(C(=O)Nc2ccc(Br)cc2)CCCCC1`, the IC50 [15] was > 32 µM (inactive), the EC50 [16] was 0.423 µM (active) and the EC50 (Mu-type opioid receptor [17]) was > 32 µM (inactive). The IC50 [18] was > 32 µM (inactive), the EC50 [19] was 0.0983 µM (active) and the EC50 [20] was > 32 µM (inactive). The IC50 (Mu-type opioid receptor [21]) was > 32 µM (inactive).

For `N#Cc1cc2c(=O)n3ccccc3nc2n(-c2ccccc2Cl)c1=O`, the EC50 [2] was > 120 µM (not active), the EC50 [4] was 11 µM (active) and the EC50 [22] was 2.88 µM (active). The EC50 [5] was > 120 µM (not active) and the EC50 [23] was 10.4 µM (inactive).

With `O=C(CSc1nc(-c2ccc(F)cc2)nc2c1Cc1ccccc1O2)Nc1ccc(C(=O)O)cc1` the IC50 [24] was > 66.6 µM (inactive), the IC50 [25] was 10.1 µM (active) and the IC50 [26] was 5.02 µM (active). The IC50 [27] was 23 µM (active), the IC50 [28] was > 50 µM (not active) and the IC50 [29] was 50 µM (inactive). For the same molecule, the IC50 [30] was 3.36 µM (active) and the IC50 [31] was 4.04 µM (active).
